We go through 20 compounds from patent publication EP0881220A1, “DIARYLSULTAM DERIVATIVES” (priority 1996, dated 1997).

One assay has as its target T1, Dopamine D2 (Rattus norvegicus, UniProt P61169).
T1 construct: dopaminergic receptors was also measured using rat striata; from tissue; host or cells: rat striata
The assay is described as follows: Binding to dopaminergic receptors using rat striata (method of Terai et al.). The procedure:
The binding of these compounds to dopaminergic receptors was also measured using rat striata according to the method described by Terai et al. (M. Terai, et al., Eur. J. Pharmacol. 1989, 173, 177).

For a further assay, the target named is sigma 1 binding site (Cavia porcellus, UniProt Q60492). The assay can be described thus: biochemical.
The next assay deals with T2, sigma 2 binding site (Rattus norvegicus, UniProt Q5U3Y7).
T2 sequence (Q5U3Y7 1-176): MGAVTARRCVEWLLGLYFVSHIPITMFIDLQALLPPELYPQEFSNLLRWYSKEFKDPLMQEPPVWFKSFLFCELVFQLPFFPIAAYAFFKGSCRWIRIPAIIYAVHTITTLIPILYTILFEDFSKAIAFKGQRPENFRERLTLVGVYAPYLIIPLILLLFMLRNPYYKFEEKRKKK
The assay can be described thus: Sigma 2 selective receptor binding inhibition assay with [^3H]-di-o-tolylguanidine. To be noted: for S2/S1 Ratio: ratio of Sigma 2 Ki to Sigma 1 Ki.

Where a name gives a salt, the structure may show the parent alone.

T1 sequence (P61169 whole entry): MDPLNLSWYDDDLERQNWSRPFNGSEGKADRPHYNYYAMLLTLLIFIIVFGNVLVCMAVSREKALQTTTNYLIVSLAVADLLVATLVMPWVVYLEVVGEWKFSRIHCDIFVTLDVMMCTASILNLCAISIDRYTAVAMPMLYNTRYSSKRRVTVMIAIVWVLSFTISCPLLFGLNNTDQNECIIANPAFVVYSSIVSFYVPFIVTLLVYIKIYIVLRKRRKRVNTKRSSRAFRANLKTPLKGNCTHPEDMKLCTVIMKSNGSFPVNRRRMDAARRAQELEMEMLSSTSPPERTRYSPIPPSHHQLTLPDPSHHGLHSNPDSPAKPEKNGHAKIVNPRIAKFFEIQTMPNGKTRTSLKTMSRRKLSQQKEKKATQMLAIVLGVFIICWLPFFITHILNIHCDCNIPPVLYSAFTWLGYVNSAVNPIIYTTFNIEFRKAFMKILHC
Sequence of sigma 1 binding site (Q60492 whole entry): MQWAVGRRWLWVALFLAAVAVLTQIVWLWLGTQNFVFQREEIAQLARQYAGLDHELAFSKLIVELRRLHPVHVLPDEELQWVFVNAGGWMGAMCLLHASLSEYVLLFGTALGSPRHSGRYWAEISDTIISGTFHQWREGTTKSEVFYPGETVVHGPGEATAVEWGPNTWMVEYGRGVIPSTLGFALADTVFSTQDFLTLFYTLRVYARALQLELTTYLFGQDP

With `CN(CCCCN1c2ccccc2Oc2ccc(Cl)cc2S1(=O)=O)CC(O)C12CC3CC(CC(C3)C1)C2` (racemic) [Example 23, (R,S)-1-(1-Adamantyl)-2-[N-methyl-N-[4-(3-chloro-6H-dibenzo[b,f][1,4,5]oxathiazepin-6-yl)butyl]amino]ethanol S,S-dioxide hydrochloride], the Ki at Dopamine D2 came out at 1100 nM; at sigma 1 binding site, 1600 nM; on sigma 2 binding site it was 35 nM. Also, the “S2/S1 Ratio” value at sigma 2 binding site was 0.02.

Regarding `COc1ccc2c(c1)N(CC1CCN(CC(O)C34CC5CC(CC(C5)C3)C4)CC1)S(=O)(=O)c1cc(Cl)ccc1O2` (racemic) [Example 20, hydrochloride], the Ki is 790 nM on Dopamine D2, 3500 nM on sigma 1 binding site and 10 nM at sigma 2 binding site. Further, the “S2/S1 Ratio” value at sigma 2 binding site was found to be 0.003.

Turning to `COc1ccc2c(c1)N(CC1CCN(CC(O)c3ccc(F)cc3)CC1)S(=O)(=O)c1ccccc1O2` (racemic) [Example 22, (R,S)-1-(4-Fluorophenyl)-2-[4-(8-methoxy-6H-dibenzo[b,f][1,4,5]oxathiazepin-6-ylmethyl)piperidin-1-yl]ethanol S,S-dioxide hydrochloride], the Ki was found to be 870 nM at Dopamine D2, 70 nM on sigma 1 binding site and 3.7 nM on sigma 2 binding site. At sigma 2 binding site, the “S2/S1 Ratio” value is 0.05.

On to `CN(CCCCN1c2ccccc2Oc2ccc(Cl)cc2S1(=O)=O)CC(O)c1ccc(F)cc1` (racemic) [Example 24, (R,S)-1-(4-Fluorophenyl)-2-[N-methyl-N-[4-(3-chloro-6H-dibenzo[b,f][1,4,5]oxathiazepin-6-yl)butyl]amino]ethanol S,S-dioxide hydrochloride], for which the results for the Ki at Dopamine D2, on sigma 1 binding site and at sigma 2 binding site were 800 nM, 140 nM and 19 nM, respectively. Moreover, the “S2/S1 Ratio” value at sigma 2 binding site is recorded as 0.1.

For the compound `O=S1(=O)c2ccccc2Nc2ccc(Cl)cc2N1CC1CCN(CC(O)C23CC4CC(CC(C4)C2)C3)CC1` (racemic) [Example 8, (R,S)-1-(1-Adamantyl)-2-[4-(8-chloro-6,11-dihydrodibenzo[c,f][1,2,5]thiadiazepin-6-ylmethyl)piperidin-1-yl]ethanol S,S-dioxide hydrochloride], the values for the Ki at Dopamine D2, at sigma 1 binding site and at sigma 2 binding site were 410 nM, 630 nM and 16 nM, respectively. The “S2/S1 Ratio” value at sigma 2 binding site is listed as 0.03.

Take `Cc1ccccc1C(O)CN1CCC(CN2c3ccccc3Nc3ccccc3S2(=O)=O)CC1` (racemic) [Example 5, (R,S)-1-(2-Methylphenyl)-2-[4-(6,11-dihydrodibenzo[c,f][1,2,5]thiadiazepin-6-ylmethyl)piperidin-1-yl]ethanol S,S-dioxide hydrochloride]: the Ki is 79 nM at Dopamine D2, 71 nM on sigma 1 binding site and 13 nM at sigma 2 binding site. At sigma 2 binding site, the “S2/S1 Ratio” value turned out to be 0.2.

`O=S1(=O)c2ccccc2Oc2ccccc2N1CC1CCN(CC(O)c2ccc(Cl)cc2)CC1` (racemic) [Example 11, (R,S)-1-(4-Chlorophenyl)-2-[4-(6H-dibenzo[b,f][1,4,5]oxathiazepin-6-ylmethyl)piperidin-1-yl]ethanol S,S-dioxide hydrochloride]: the values for the Ki on Dopamine D2, on sigma 1 binding site and at sigma 2 binding site were 200 nM, 43 nM and 2.3 nM, respectively. Further, the “S2/S1 Ratio” value at sigma 2 binding site was found to be 0.05.

As to `COc1ccc(C(O)CN2CCC(CN3c4ccccc4Oc4ccccc4S3(=O)=O)CC2)cc1` (racemic) [Example 12, (R,S)-1-(4-Methoxyphenyl)-2-[4-(6H-dibenzo[b,f][1,4,5]oxathiazepin-6-ylmethyl)piperidin-1-yl]ethanol S,S-dioxide hydrochloride], the Ki amounted to 280 nM on Dopamine D2, 78 nM at sigma 1 binding site and 7.1 nM on sigma 2 binding site. In addition, the “S2/S1 Ratio” value on sigma 2 binding site is 0.09.

`COc1ccc2c(c1)N(CC1CCN(CC(O)c3ccc(F)cc3)CC1)S(=O)(=O)c1cc(Cl)ccc1O2` (racemic) [Example 21, (R,S)-1-(4-Fluorophenyl)-2-[4-(3-chloro-8-methoxy-6H-dibenzo[b,f][1,4,5]oxathiazepin-6-ylmethyl)piperidin-1-yl]ethanol S,S-dioxide hydrochloride]: the Ki was 820 nM on Dopamine D2, 420 nM at sigma 1 binding site and 9 nM at sigma 2 binding site. Also, the “S2/S1 Ratio” value on sigma 2 binding site is 0.02.

With `Cc1ccc(C(O)CN2CCC(CN3c4ccccc4Oc4ccccc4S3(=O)=O)CC2)cc1` (racemic) [Example 13, (R,S)-1-(4-Methylphenyl)-2-[4-(6H-dibenzo[b,f][1,4,5]oxathiazepin-6-ylmethyl)piperidin-1-yl]ethanol S,S-dioxide hydrochloride], the Ki turned out to be 180 nM on Dopamine D2, 89 nM on sigma 1 binding site and 1.6 nM at sigma 2 binding site. Also, the “S2/S1 Ratio” value on sigma 2 binding site came to 0.02.

As for `O=C(CN1CCC(CN2c3ccccc3Nc3ccccc3S2(=O)=O)CC1)C12CC3CC(CC(C3)C1)C2` [Example 1, 6-[[1-[2-(1-Adamantyl)-2-oxoethyl]-4-piperidinyl]methyl]-6,11-dihydrodibenzo[c,f][1,2,5]thiadiazepine 5,5-dioxide·hydrochloride], the Ki at Dopamine D2 was over 1000 nM; on sigma 1 binding site, 150 nM; at sigma 2 binding site it was 5 nM. The “S2/S1 Ratio” value on sigma 2 binding site is recorded as 0.03.

For `O=S1(=O)c2cc(Cl)ccc2Oc2ccccc2N1CC1CCN(CC(O)c2ccc3ccccc3c2)CC1` (racemic) [Example 17, (R,S)-1-(2-Naphthyl)-2-[4-(3-chloro-6H-dibenzo[[b,f][1,4,5]oxathiazepin-6-ylmethyl)piperidin-1-yl]ethanol S,S-dioxide hydrochloride], the Ki on Dopamine D2 turned out to be 350 nM; at sigma 1 binding site, 510 nM; at sigma 2 binding site it was 4.2 nM. In addition, at sigma 2 binding site, the “S2/S1 Ratio” value is recorded as 0.008.

Regarding `O=S1(=O)c2cc(Cl)ccc2Oc2ccccc2N1CC1CCN(CC(O)C23CC4CC(CC(C4)C2)C3)CC1` (racemic) [Example 14, (R,S)-1-(1-Adamantyl)-2-[4-(3-chloro-6H-dibenzo[b,f][1,4,5]oxathiazepin-6-ylmethyl)piperidin-1-yl]ethanol S,S-dioxide hydrochloride], the results for the Ki at Dopamine D2, on sigma 1 binding site and at sigma 2 binding site were 120 nM, 380 nM and 3.1 nM, respectively. Also, the “S2/S1 Ratio” value on sigma 2 binding site came to 0.008.

As for `O=S1(=O)c2cc(Cl)ccc2Oc2ccccc2N1CC1CCN(CC(O)c2ccc(C(F)(F)F)cc2)CC1` (racemic) [Example 18, (R,S)-1-(4-Trifluoromethylphenyl)-2-[4-(3-chloro-6H-dibenzo[b,f][1,4,5]oxathiazepin-6-ylmethyl)piperidin-1-yl]ethanol S,S-dioxide hydrochloride], the Ki at Dopamine D2 came out at 350 nM; on sigma 1 binding site, 1100 nM; on sigma 2 binding site it was 3.2 nM. Moreover, at sigma 2 binding site, the “S2/S1 Ratio” value came out at 0.003.

On to `CN1c2ccccc2N(CC2CCN(CC(O)c3ccc(F)cc3)CC2)S(=O)(=O)c2ccccc21` (racemic) [Example 7, (R,S)-1-(4-Fluorophenyl)-2-[4-(11-methyl-6,11-dihydrodibenzo[c,f][1,2,5]thiadiazepin-6-ylmethyl)piperidin-1-yl]ethanol S,S-dioxide hydrochloride], for which the results for the Ki on Dopamine D2, at sigma 1 binding site and at sigma 2 binding site were 320 nM, 540 nM and 4 nM, respectively. Further, the “S2/S1 Ratio” value at sigma 2 binding site turned out to be 0.007.

Regarding `O=S1(=O)c2cc(Cl)ccc2Oc2ccccc2N1CC1CCN(CC(O)c2ccc(OC(F)(F)F)cc2)CC1` (racemic) [Example 19, (R,S)-1-(4-Trifluoromethoxyphenyl)-2-[4-(3-chloro-6H-dibenzo[b,f][1,4,5]oxathiazepin-6-ylmethyl)piperidin-1-yl]ethanol S,S-dioxide hydrochloride], the Ki stood at 270 nM on Dopamine D2, 1200 nM on sigma 1 binding site and 8.4 nM at sigma 2 binding site. Also, the “S2/S1 Ratio” value on sigma 2 binding site is reported as 0.007.

`O=S1(=O)c2cc(Cl)ccc2Oc2ccccc2N1CC1CCN(CC(O)c2ccc(F)cc2)CC1` (racemic) [Example 16, (R,S)-1-(4-Fluorophenyl)-2-[4-(3-chloro-6H-dibenzo[b,f][1,4,5]oxathiazepin-6-ylmethyl)piperidin-1-yl]ethanol S,S-dioxide hydrochloride]: the figures for the Ki on Dopamine D2, at sigma 1 binding site and on sigma 2 binding site were 210 nM, 85 nM and 1.1 nM, respectively. In addition, the “S2/S1 Ratio” value at sigma 2 binding site stood at 0.01.

Regarding `CN1c2ccccc2N(CC2CCN(CC(O)C34CC5CC(CC(C5)C3)C4)CC2)S(=O)(=O)c2ccccc21` (racemic) [Example 6, (R,S)-1-(1-Adamantyl)-2-[4-(11-methyl-6,11-dihydrodibenzo[c,f][1,2,5]thiadiazepin-6-ylmethyl)piperidin-1-yl]ethanol S,S-dioxide hydrochloride], the Ki on Dopamine D2 amounted to 170 nM; on sigma 1 binding site, 2100 nM; at sigma 2 binding site, 2.7 nM. Besides, the “S2/S1 Ratio” value on sigma 2 binding site came out at 0.001.

With `O=S1(=O)c2cc(Cl)ccc2Oc2ccccc2N1CC1CCN(CC(O)c2ccccc2)CC1` (racemic) [Example 15, (R,S)-1-Phenyl-2-[4-(3-chloro-6H-dibenzo[b,f][1,4,5]oxathiazepin-6-yl-methyl)piperidin-1-yl]ethanol S,S-dioxide hydrochloride], the Ki was found to be 180 nM on Dopamine D2, 110 nM at sigma 1 binding site and 1.3 nM on sigma 2 binding site. The “S2/S1 Ratio” value at sigma 2 binding site was 0.01.

On to `O=S1(=O)c2ccccc2Nc2ccccc2N1CC1CCN(CC(O)c2ccc(F)cc2F)CC1` (racemic) [Example 3, (R,S)-1-(2,4-Difluorophenyl)-2-[4-(6,11-dihydrodibenzo[c,f][1,2,5]thiadiazepin-6-yl-methyl)piperidin-1-yl]ethanol S,S-dioxide hydrochloride], for which the Ki on Dopamine D2 was determined as 700 nM; on sigma 1 binding site, 280 nM; at sigma 2 binding site, 16 nM. Also, on sigma 2 binding site, the “S2/S1 Ratio” value was 0.06.

Usually Ki stands for a measure of affinity in units of concentration, obtained from inhibition or displacement.
